Where no end group is shown, it is not given here. [ ]: non-standard residue; d: D form. Nle = CCCC[C@H](N)C(=O)O
What was measured:
gemcitabine-treated mice [1] = experiment: Platelet counts in gemcitabine-treated mice (oral efficacy study); assay type: in vivo, C57Bl/6 mice; details: subcutaneous, 0.3 mg/kg daily for 21 days after 160 mg/kg gemcitabine; FIG. 3
Experimental: (§1) The female C57Bl/6 mice (7 per group), 6-8 weeks old, were treated with the formulations described above daily starting 1 day after intravenous injection with chemotherapy, 160 mg/kg gemcitabine. On days 1, 3, 7, 15 and 21 after chemotherapy administration, blood was taken under anesthesia from the saphenous vein to assess white blood cell, and platelet numbers. On day 22, the mice were euthanized and bone marrow collected to assess the number of colony forming units.
(§2) The mice were bled from the saphenous vein. The mice were anesthetized by placing the nose of the animals in a 50 ml conical tube containing cotton balls soaked with isoflurane (an inhaled anesthesia). […]
(§3) Twenty μl of blood was mixed with 180 μl of RBC lysing solution (0.83% NH4Cl, 10 mM EDTA, 0.5% NaHCO3). […] This mixture was vortexed and the number of WBC was evaluated by hematocytometer under light microscopy and the number of platelets was evaluated by hematocytometer under phase contrast microscopy.
(§4) In order to assess the oral efficacy, gemcitabine-treated mice were treated daily for 21 days with five treatments: 1) SQ dosed saline, 2) SQ dosed A(1-7) at 0.3 mg/kg, 3) SQ dosed NorLeu3-A(1-7) at 0.3 mg/kg, 4) orally dosed β-CD formulated A(1-7) at 0.3 mg/kg, or 5) orally dosed β-CD formulated NorLeu-A(1-7)) at 0.3 mg/kg. The effects of these treatments on peripheral blood counts were assessed.

gemcitabine-treated mice [2] = experiment: White blood cell counts in gemcitabine-treated mice (oral efficacy study); assay type: in vivo, C57Bl/6 mice; details: subcutaneous, 0.3 mg/kg daily for 21 days after 160 mg/kg gemcitabine; FIG. 1
Experimental: as §1, §2, §3, §4

Row | Substance | circulating platelet numbers (gemcitabine-treated mice [1]) | number of circulating WBC (gemcitabine-treated mice [2])
1 | Asp-Arg-Nle-Tyr-Ile-His-Pro (DR[Nle]YIHP) [NorLeu3-A(1-7), dosed subcutaneously as comparator] | did not circulating platelet numbers | increased the number of circulating WBC
2 | angiotensin (1-7) (DRVYIHP; Angiotensin 1-7; UniProt P01019 25-31, looked up, fragment) [A(1-7), Investigational Mas agonist peptide] | – | increased the number of circulating WBC
